What was measured:
Type in all cases: cell-based
[1] = system: iPS-derived cardiomyocytes; assay: CellTiter-Glo counter-screen, cardiomyocytes; conditions: Homo sapiens, Cardiomyocyte
Experimental: Human induced pluripotent stem cell-derived cardiomyocytes were obtained from Cellular Dynamics International (Madison, Wis.), and handled according to the manufacturer's instructions;
(§1) 696 confirmed hits from the confirmation screen were tested for profiling in a panel of 13 different cell types, using the same screening protocol described above (except in the case of embryonic stem cell-derived neural stem cells (NSCs) and mesenchymal stem cells (MSCs), for which the protocol is described below). As discussed below, compounds were tested either in dose-dependent multiple concentration manner or in single concentration manner. CSES2 and CSES2-SO2/3 cell lines and the early endodermal progenitors derived from this cell line (CSES2-SO2/3-differentiated) were screened at 8 concentrations ranging from 50 μM to 23 nM with 1:3 serial dilution steps. BJ-iPS28 cell line and the BJ fibroblasts from which it was derived were screened at 6 concentrations ranging from 50 μM to 200 nM with 1:3 serial dilution steps. Cardiomyocytes were screened in one concentration of 20 μM. HeLa and NTERA-2 cell lines were screened in duplicates of 20 μM. Kelly and Huh-7 were screened in triplicates of 20 μM. Hepatocytes were screened in duplicates of 20 μM in the original 96-well plates in which the cells arrived (40,000 cells per well, in 160 μl medium, the volumes of all reagents involved were adjusted accordingly). MSCs and NSCs were screened in duplicates of 12.5 μM.
(§2) In order to identify highly-selective cytotoxic inhibitors of hPSCs, the 696 cytotoxic inhibitors of hPSCs identified as described in Example 1 were counter-screened as described in the Materials and Methods section against other cell types, representative of all germ layers and developmental stages. Importantly, many of these cell types were differentiated from human ES or iPS cells. The screened cell types included ES-derived neural stem cells (NSCs), ES-derived mesenchymal stem cells (MSCs), ES-derived endodermal progenitor cells, ES-derived hepatocytes, iPS-derived cardiomyocytes, iPS-derived fibroblasts of origin (BJ fibroblasts), and three cancer cell lines: neuroblastoma (Kelly), cervical cancer (HeLa) and hepatocarcinoma (Huh7). The cell types and their relationship to stem cells are depicted schematically in FIG. 14.

[2] = system: CSES2-SO2/3 ES-derived endodermal progenitors; assay: CellTiter-Glo counter-screen, endodermal progenitors; conditions: Homo sapiens; for EC50: 24 hours, differentiated cells
Experimental: CSES2-SO2/3 embryonic stem cells were differentiated to endodermal progenitors using an established protocol [Duan et al. Stem Cells 28:674-686 (2010)]. Undifferentiated cells were seeded at a density of 10,000 cells/cm^2 on MatrigelT™-coated plates, with mTeSR1 medium. The next day (day 1), medium was replaced to serum-free RPMI-1640, supplemented with 2 mM glutamine, 100 ng/ml Activin A 60 μg/ml of G418 geneticin sulfate and 0.3 μg/ml of puromycin. From day 3 to day 8, the same medium was also supplemented with 1×B27 supplement (Invitrogen) and 0.5 mM sodium butyrate. The cellular identity of the cells as endodermal progenitors was verified by quantifying the percentage of green SOX17+ cells, and the percentage of CXCR4+ cells, using a Guava® EasyCyte™ Plus flow cytometry system (Millipore). Further validation was obtained by fluorescence-staining of the cells with an antibody against the early endodermal surface marker CXCR4 (CXCR4-PE antibody, 1:25; BD Biosciences). The percentage of CXCR4+ cells was also quantified using the Guava® EasyCyte™ Plus flow cytometry system.
as §1, with “CSES2 and CSES2-SO2/3 cell lines and the early endodermal progenitors derived from this cell line (CSES2-SO2/3-differentiated) were screened at 8 concentrations ranging from 50 μM to 23 nM with 1:3 serial dilution steps.” left out
as §2
The identified compounds were screened at 8 concentrations using both the undifferentiated red cells and the differentiated green cells, and reliable EC50 values were thereby calculated for the genetically identical differentiated and undifferentiated cells.

[3] = system: HeLa cells; assay: CellTiter-Glo counter-screen, HeLa; conditions: Homo sapiens, cancer cells
Experimental: The cervical carcinoma cell line HeLa, teratocarcinoma cell line NTERA-2, and immortalized BJ fibroblast cell line, were cultured in DMEM supplemented with 10% FBS, penicillin (50 U/ml) and streptomycin (50 μg/ml).
as §1, §2

[4] = system: Huh7 cells; assay: CellTiter-Glo counter-screen, Huh7; conditions: Homo sapiens, Huh-7, cancer cells
Experimental: The hepatocarcinoma cell line Huh-7 was cultured in a DMEM/F12 (1:1) medium, supplemented with 10% FBS, penicillin (50 U/ml) and streptomycin (50 μg/ml).
as §1, §2

O=C(NNc1ccccc1)c1ccncc1 [PluriSIn #1, isonicotinic acid N′-phenylhydrazide]
inhibition at 20 µM [1]: 15%
EC50 [2]: > 50 µM
inhibition at 20 µM [2]: 6.5%
inhibition at 20 µM [3]: 5.7%
inhibition at 20 µM [4]: 5.8%

O=C(Nc1ccccc1)n1cc(F)c(=O)[nH]c1=O [PluriSIn #2]
inhibition at 20 µM [1]: 4.4%
EC50 [2]: > 50 µM
inhibition at 20 µM [2]: -8.3%
inhibition at 20 µM [3]: -2.1%
inhibition at 20 µM [4]: -0.2%

Nc1cc(N)cc(COc2ccc(-c3ccccc3)cc2)c1 [PluriSIn #3]
inhibition at 20 µM [1]: -2.9%
EC50 [2]: > 50 µM
inhibition at 20 µM [2]: -9.2%
inhibition at 20 µM [3]: -4.2%
inhibition at 20 µM [4]: -5.9%

O=C(NCCc1ccc(O)cc1)c1ccc(N2CCCCC2)cc1 [PluriSIn #4]
inhibition at 20 µM [1]: 14.1%
EC50 [2]: > 50 µM
inhibition at 20 µM [2]: -1.1%
inhibition at 20 µM [3]: 2.2%
inhibition at 20 µM [4]: 12.1%

O=S(=O)(NNc1ccccc1)c1ccc2ccccc2c1 [PluriSIn #5]
inhibition at 20 µM [1]: 3.1%
EC50 [2]: > 50 µM
inhibition at 20 µM [2]: 12.9%
inhibition at 20 µM [3]: -0.6%
inhibition at 20 µM [4]: 3.6%

Cc1ccc(NNC(=O)C(O)(c2ccccc2)c2cccs2)cc1 (centres unmarked) [PluriSIn #6, 2-hydroxy-2-(thiophen-2-yl)-2-phenylacetic acid 4-methyl-N′-phenylhydrazide]
inhibition at 20 µM [1]: 2.6%
EC50 [2]: > 50 µM
inhibition at 20 µM [2]: -2.5%
inhibition at 20 µM [3]: 2.6%
inhibition at 20 µM [4]: 4.6%

CC(=O)Oc1ccc(/C=C/c2ccc3c(c2)CCN3C)cc1 [PluriSIn #7]
inhibition at 20 µM [1]: 6.8%
EC50 [2]: > 50 µM
inhibition at 20 µM [2]: 24.8%
inhibition at 20 µM [3]: -3.6%
inhibition at 20 µM [4]: 11.2%

Cc1oc2ccccc2c1/C=N/Nc1ccccc1 [PluriSIn #8]
inhibition at 20 µM [1]: 8.9%
EC50 [2]: > 50 µM
inhibition at 20 µM [2]: 0%
inhibition at 20 µM [3]: 14.3%
inhibition at 20 µM [4]: 10.9%

C/C(=N\O)NNc1ccc(Cl)cc1 [PluriSIn #9]
inhibition at 20 µM [1]: 24.7%
EC50 [2]: > 50 µM
inhibition at 20 µM [2]: 11.9%
inhibition at 20 µM [3]: -0.7%
inhibition at 20 µM [4]: 10.4%

CCCCCC(=O)NNc1ccc(Cl)cc1 [PluriSIn #10]
inhibition at 20 µM [1]: 12.6%
EC50 [2]: > 50 µM
inhibition at 20 µM [2]: 33.8%
inhibition at 20 µM [3]: 3%
inhibition at 20 µM [4]: 9.3%

CCOC(=O)CN1CC(=O)/C(=C\NNc2ccccc2)C1=O [PluriSIn #11]
inhibition at 20 µM [1]: -5.8%
EC50 [2]: > 50 µM
inhibition at 20 µM [2]: 4.3%
inhibition at 20 µM [3]: -0.7%
inhibition at 20 µM [4]: 7%

CCN(CC)C(=O)C(=O)c1c(-c2ccccc2)[nH]c2c1sc1ccccc12 [PluriSIn #12]
inhibition at 20 µM [1]: -3.3%
EC50 [2]: > 50 µM
inhibition at 20 µM [3]: 15.2%
inhibition at 20 µM [4]: -1%

O=C1C=CC=C1/C=C/C(=N\Nc1ccccc1)c1ccccc1 [PluriSIn #13]
inhibition at 20 µM [1]: 22.9%
EC50 [2]: > 50 µM
inhibition at 20 µM [2]: 15.8%
inhibition at 20 µM [3]: 0%
inhibition at 20 µM [4]: 11.8%

O=C(NN(C(=O)c1ccccc1)c1ccccc1)c1ccc(Cl)cc1 [PluriSIn #14]
inhibition at 20 µM [1]: 3.9%
EC50 [2]: > 50 µM
inhibition at 20 µM [2]: 18.8%
inhibition at 20 µM [3]: -2.3%
inhibition at 20 µM [4]: 11.5%

C(=N\C1CCC(CC2CCCCC2)CC1)/OC1CCOC1 (centres unmarked) [PluriSIn #15]
inhibition at 20 µM [1]: 3.8%
EC50 [2]: > 50 µM
inhibition at 20 µM [2]: 2.1%
inhibition at 20 µM [3]: 17.8%
inhibition at 20 µM [4]: 22.2%

— patent publication US20180153830A1, “SELECTIVE INHIBITORS OF UNDIFFERENTIATED CELLS” (Yissum Research Development Company of the Hebrew …, priority 2012, published 2018)
